{"source": "patent US20240390306A1", "about": "“Monohydrate Salt of Denatonium Acetate” (priority 2021, published 2024)", "key": {"[1]": {"experiment": "Gravimetric Vapor Sorption (GVS) experiments", "type": "physicochemical", "protocol": "Several Gravimetric Vapor Sorption (GVS) experiments were carried out to investigate the behavior of DAM over a range of different relative humidity levels. […] This experiment used a similar method to GVS 1 without the steps involving 90% RH where the large mass changes were observed and equilibrium was not reached. […] Most of the mass change (1.3-1.4% increase) occurred between 0-10% RH. […] It also loses mass when taken to relative humidity levels of less than 10%."}, "[2]": {"experiment": "Storage under stress conditions (temperature / relative humidity)", "type": "physicochemical", "text": "It also lost mass when taken to relative humidity levels of less than 10%.\nIt also loses mass when taken to relative humidity levels of less than 10%.\nIt was then removed from the instrument and a portion immediately analyzed by XRPD."}, "[3]": {"experiment": "Polymorph screen: solvent addition to ca. 10 mg DAM, initial observation (solubility)", "type": "physicochemical", "protocol": "The resultant samples were refrigerated (solutions) or shaken at room temperature (suspensions) for several days. The samples that had initially formed solutions were examined for signs of solid formation after refrigeration. If solid material had formed, it was analyzed by XRPD. If no solid had formed the vials were uncapped and the solutions evaporated, and solid residues analyzed by XRPD. For samples which had initially formed suspensions-if solid was still present it was analyzed by XRPD. The supernatant from the suspension was filtered and then the filtrates were then treated as the solutions above. In some experiments further solid was obtained from evaporation of the filtrates and was analyzed by XRPD where the quantity of material allowed."}, "[4]": {"experiment": "Particle size distribution", "type": "physicochemical", "text": "The sample was highly crystalline."}, "[5]": {"experiment": "Polymorph screen: solvent addition to ca. 10 mg DAM, initial observation (solubility)", "type": "physicochemical", "remark": "listed apart in the source"}, "[6]": {"type": "physicochemical", "settings": "for form by XRPD after storage: closed vial, 6 weeks", "text": "It was then removed from the instrument and a portion immediately analyzed by XRPD. […]\nA summary of the characterization data for the samples of Pattern 5 can be found in Table 9."}}, "note": "Entries after “also recorded” stand apart in the source; their conditions may differ. Read-outs that look alike come from different tables or passages of the source."}
{"smiles": "CC(=O)[O-].CC[N+](CC)(CC(=O)Nc1c(C)cccc1C)Cc1ccccc1", "note": "[DAM, denatonium acetate monohydrate]", "values": [{"measurement": "sample appearance after GVS", "setting": "[1]; post GVS 1 (40-90-0-90-0-40)", "value": "sorption cycle. Sample had formed a solid mass with powdery"}, {"measurement": "sample appearance after GVS", "setting": "[1]; post GVS 2 (40-80-0-80-0-40), acetate monohydrate", "value": "remained as a free-flowing powder; also recorded: Sample remained free flowing solid"}, {"measurement": "sample appearance after GVS", "setting": "[1]; post GVS 3 (40-0-80-0-80-0-40), acetate monohydrate", "value": "remained as a free-flowing powder; also recorded: Sample remained free flowing solid"}, {"measurement": "form by XRPD after storage", "setting": "[2]; 0% RH (open vial in GVS instrument, 2 days), acetate monohydrate", "value": "converted to Pattern 5; also recorded: consistent with Pattern 5; also recorded: change in form to Pattern 5"}, {"measurement": "form by XRPD after storage", "setting": "[2]; 25° C., 96% RH, 7 days", "value": "Amorphous"}, {"measurement": "form by XRPD after storage", "setting": "[2]; 40° C., 75% RH, 7 days", "value": "Shows no change in form by XRPD after 7 days"}, {"measurement": "Initial observation", "setting": "[3]; ca. 10 mg in 1-Pentanol, 50 μL", "value": "Soluble"}, {"measurement": "Initial observation", "setting": "[3]; ca. 10 mg in 2-Butanol, 50 μL", "value": "Soluble"}, {"measurement": "Initial observation", "setting": "[3]; ca. 10 mg in 2-Ethoxyethanol, 25 μL", "value": "Soluble"}, {"measurement": "Initial observation", "setting": "[3]; ca. 10 mg in 2-Methoxyethanol, 25 μL", "value": "Soluble"}, {"measurement": "Initial observation", "setting": "[3]; ca. 10 mg in Acetic acid, 25 μL", "value": "Soluble"}, {"measurement": "Initial observation", "setting": "[3]; ca. 10 mg in Acetone, 1000 μL", "value": "Soluble"}, {"measurement": "Initial observation", "setting": "[3]; ca. 10 mg in Diisopropyl ether, 1000 μL", "value": "Suspension"}, {"measurement": "Initial observation", "setting": "[3]; ca. 10 mg in Dimethylsulfoxide, 100 μL", "value": "Solution"}, {"measurement": "Initial observation", "setting": "[3]; ca. 10 mg in Ethyl acetate, 1000 μL", "value": "Suspension"}, {"measurement": "Initial observation", "setting": "[3]; ca. 10 mg in Ethyl formate, 50 μL", "value": "Soluble"}, {"measurement": "Initial observation", "setting": "[3]; ca. 10 mg in MeCN + 5% water, 50 μL", "value": "Solution"}, {"measurement": "Initial observation", "setting": "[3]; ca. 10 mg in MeOH + 5% water, 25 μL", "value": "Solution"}, {"measurement": "Initial observation", "setting": "[3]; ca. 10 mg in Methylethyl ketone, 800 μL", "value": "Soluble"}, {"measurement": "Initial observation", "setting": "[3]; ca. 10 mg in Tetrahydrofuran, 1000 μL", "value": "Suspension"}, {"measurement": "PSD D10", "setting": "[4]", "value": 1.62, "unit": "μm"}, {"measurement": "PSD D50", "setting": "[4]", "value": 23.09, "unit": "μm"}, {"measurement": "Initial observation", "setting": "[5]; ca. 10 mg in 1,2-Dimethoxyethane, 1000 μL", "value": "Suspension"}, {"measurement": "Initial observation", "setting": "[5]; ca. 10 mg in 1,4-Dioxane, 1000 μL", "value": "Suspension"}, {"measurement": "Initial observation", "setting": "[5]; ca. 10 mg in 1-Butanol, 50 μL", "value": "Soluble"}, {"measurement": "Initial observation", "setting": "[5]; ca. 10 mg in 1-Propanol, 25 μL", "value": "Soluble"}, {"measurement": "Initial observation", "setting": "[5]; ca. 10 mg in 2-Methyl-1-Propanol, 50 μL", "value": "Soluble"}, {"measurement": "Initial observation", "setting": "[5]; ca. 10 mg in 2-Pentanone, 1000 μL", "value": "Suspension"}, {"measurement": "Initial observation", "setting": "[5]; ca. 10 mg in 2-Propanol, 50 μL", "value": "Soluble"}, {"measurement": "Initial observation", "setting": "[5]; ca. 10 mg in 3-Methyl-1-Butanol, 50 μL", "value": "Soluble"}, {"measurement": "Initial observation", "setting": "[5]; ca. 10 mg in 4-Methyl-2-pentanone, 1000 μL", "value": "Suspension"}, {"measurement": "Initial observation", "setting": "[5]; ca. 10 mg in Acetone + 5% water, 50 μL", "value": "Solution"}, {"measurement": "Initial observation", "setting": "[5]; ca. 10 mg in Acetonitrile, 200 μL", "value": "Soluble"}, {"measurement": "Initial observation", "setting": "[5]; ca. 10 mg in Anisole, 750 μL", "value": "Suspension"}, {"measurement": "Initial observation", "setting": "[5]; ca. 10 mg in Benzonitrile, 500 μL", "value": "Nearly all"}, {"measurement": "Initial observation", "setting": "[5]; ca. 10 mg in Benzyl alcohol, 25 μL", "value": "Solution"}, {"measurement": "Initial observation", "setting": "[5]; ca. 10 mg in Butyl acetate, 1000 μL", "value": "Suspension"}, {"measurement": "Initial observation", "setting": "[5]; ca. 10 mg in Chloroform, 50 μL", "value": "Soluble"}, {"measurement": "Initial observation", "setting": "[5]; ca. 10 mg in Cumene, 1000 μL", "value": "Suspension"}, {"measurement": "Initial observation", "setting": "[5]; ca. 10 mg in Diethyl ether, 1000 μL", "value": "Suspension"}, {"measurement": "Initial observation", "setting": "[5]; ca. 10 mg in EtOH + 5% water, 25 μL", "value": "Solution"}, {"measurement": "Initial observation", "setting": "[5]; ca. 10 mg in Ethanol, 25 μL", "value": "Soluble"}, {"measurement": "Initial observation", "setting": "[5]; ca. 10 mg in Formic acid, 25 μL", "value": "Soluble"}, {"measurement": "Initial observation", "setting": "[5]; ca. 10 mg in IPA + 5% water, 50 μL", "value": "Solution"}, {"measurement": "Initial observation", "setting": "[5]; ca. 10 mg in Isobutyl acetate, 1000 μL", "value": "Suspension"}, {"measurement": "Initial observation", "setting": "[5]; ca. 10 mg in Isopropyl acetate, 1000 μL", "value": "Suspension"}, {"measurement": "Initial observation", "setting": "[5]; ca. 10 mg in Methanol, 25 μL", "value": "Soluble"}, {"measurement": "Initial observation", "setting": "[5]; ca. 10 mg in Methyl acetate, 1000 μL", "value": "Suspension"}, {"measurement": "Initial observation", "setting": "[5]; ca. 10 mg in Methylbutyl ketone, 1000 μL", "value": "Suspension"}, {"measurement": "Initial observation", "setting": "[5]; ca. 10 mg in Pentane, 1000 μL", "value": "Suspension"}, {"measurement": "Initial observation", "setting": "[5]; ca. 10 mg in Propyl acetate, 1000 μL", "value": "Suspension"}, {"measurement": "Initial observation", "setting": "[5]; ca. 10 mg in Toluene, 1000 μL", "value": "Suspension"}, {"measurement": "Initial observation", "setting": "[5]; ca. 10 mg in Water, 20 μL", "value": "Soluble"}, {"measurement": "Initial observation", "setting": "[5]; ca. 10 mg in heptane, 1000 μL", "value": "Suspension"}, {"measurement": "Initial observation", "setting": "[5]; ca. 10 mg in t-Butanol, 100 μL", "value": "Soluble"}, {"measurement": "Initial observation", "setting": "[5]; ca. 10 mg in t-Butylmethyl ether, 1000 μL", "value": "Suspension"}]}
{"smiles": "CC(=O)[O-].CC[N+](CC)(CC(=O)Nc1c(C)cccc1C)Cc1ccccc1", "note": "[Pattern 5]", "values": [{"measurement": "form stability", "setting": "[6]", "value": "metastable"}, {"measurement": "form after standing", "setting": "[6]; ambient laboratory conditions, within a few hours", "value": "converts to Pattern 1"}, {"measurement": "form by XRPD after storage", "setting": "[6]", "value": "converted to Pattern 1"}, {"measurement": "form by XRPD after storage", "setting": "[6]; listed as DAM Pattern 5", "value": "Conversion to Pattern 1 by XRPD"}, {"measurement": "form by XRPD after standing", "setting": "[6]; on XRPD disc at room temperature overnight", "value": "convert to Pattern 1; also recorded: reverted to Pattern 1"}, {"measurement": "form by XRPD after standing", "setting": "[6]; on XRPD disc at room temperature overnight, listed as DAM Pattern 5", "value": "Conversion to Pattern 1 by XRPD"}, {"measurement": "form by XRPD after standing", "setting": "[6]; on XRPD disc, ambient laboratory conditions, 4 hours, listed as DAM Pattern 5", "value": "Conversion to Pattern 1 by XRPD"}]}
